pIC50: −log10 of the molar value. Like-named read-outs stand apart in the source and are kept apart here.
Experiments:
NLuc-hACKR3 = target: T1, NLuc-hACKR3 (Homo sapiens, UniProt P25106); experiment: NanoBRET ligand binding assay (CXCL12-AF647 displacement); details: 0.3 nM CXCL12-AF647, HEK293T membranes; read-out: IC50, displacement of CXCL12-A647 binding to NLuc-hACKR3
T1 construct: expressed in transfected cells; host or cells: HEK293T (membranes, transient expression)
Experimental: (§1) Membranes of HEK293T cells that transiently expressed the NLuc-hACKR3 or HA-hACKR3 were produced as previously described.[23] Briefly, 2 million HEK293T cells were seeded per […] and were transfected the following day using a DNA/PEI-mix containing 0.25 μg plasmid DNA encoding for the ACKR3, 4.75 μg pcDEF3 plasmid DNA and 30 μg linear PEI. Two days after transfection, cells were collected in PBS (137 mM NaCl, 2.57 mM KCl, 1.5 mM KH2PO4, 8 mM Na2HPO4) and pelleted by centrifugation. Cell pellets were resuspended in ice-cold membrane buffer (15 mM Tris, 0.3 mM EDTA, 2 mM MgCl2, pH 7.4 at 4 °C) and dounce-homogenized on ice by plunging the pestle 10 times with 1500 rpm. […]
All dilutions were prepared in HBSS supplemented with 0.2% BSA. […] Total light intensity was measured at 460 nm wavelength with 80 nm bandwidth and separately for wavelengths ≥610 nm using the PHERAstar-FSX (BMG Labtech) with a dual emission filter. […]
The sigmoidal concentration-dependent displacement of binding of the probes [^3H]VUF15485 and CXCL12-A647 by unlabeled ligands were analyzed using GraphPad Prism 8, by fitting a one-site binding model to the data, to determine the pIC50. Mean pIC50 values were determined by averaging fitted values from individual experiments. […] Mean pEC50 values and pIC50 values were determined by averaging fitted values from individual experiments. […]

ACKR3 = target: T2, ACKR3 (Homo sapiens, UniProt P25106); experiment: BRET ACKR3-Rab5a proximity (early endosome translocation) in HEK293T cells; format: cell-based; details: for EC50: * VUF16840 as inverse agonist, read-out: Rab5a BRET pEC50 (converted)
T2 construct: expressed in transfected cells; host or cells: HEK293T
T2 sequence (P25106 whole entry): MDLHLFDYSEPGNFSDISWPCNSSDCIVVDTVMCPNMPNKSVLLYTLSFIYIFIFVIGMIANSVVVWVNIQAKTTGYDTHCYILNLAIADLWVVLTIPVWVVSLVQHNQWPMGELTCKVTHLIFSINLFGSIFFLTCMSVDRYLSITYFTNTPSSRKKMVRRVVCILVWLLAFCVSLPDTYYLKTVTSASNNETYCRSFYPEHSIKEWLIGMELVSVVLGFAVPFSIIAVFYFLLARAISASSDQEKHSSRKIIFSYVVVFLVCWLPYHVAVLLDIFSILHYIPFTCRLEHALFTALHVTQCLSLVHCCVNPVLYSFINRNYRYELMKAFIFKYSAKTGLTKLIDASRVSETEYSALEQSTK
Experimental: For 1·10^6 HEK293T cells, a transfection mix consisting of 2 μg plasmid DNA, 12 μg linear PEI in a total volume of 200 μL 150 mM NaCl was made and thoroughly vortexed. The transfection mix was incubated for 15 minutes and consequently added to a cell suspension with a final concentration of 3·10^5 cells/mL. For functional studies this cell suspension was immediately transferred to a poly-L-lysine-coated white 96-well plate, with 3·10^4 cells per well. […] For BRET-based membrane localization experiments, the 2 μg plasmid DNA consisted of ACKR3-NL (0.05 μg), mVenus-CAAX (0.25 μg), and pcDEF3 vector DNA without insert (1.7 μg).
(§2) The sigmoidal concentration-dependent displacement of binding of the probes [^3H]VUF15485 and CXCL12-A647 by unlabeled ligands were analyzed using GraphPad Prism 8, by fitting a one-site binding model to the data, to determine the pIC50. Mean pIC50 values were determined by averaging fitted values from individual experiments. Graphs depict the pooled data of all experiments. Similarly, sigmoidal, ligand-induced concentration-dependent activation or inhibition of the proximity between ACKR3 and the protein of interest was analyzed using GraphPad Prism 8, by fitting a 3-parameter concentration-response model to the data, to determine pEC50/pIC50 values. Mean pEC50 values and pIC50 values were determined by averaging fitted values from individual experiments. Graphs depict the pooled data of all experiments, for which values are normalized, per experiment, to the fold difference compared with basal signal.
Fig. 5 Inhibition of both constitutive as well as agonist-induced ACKR3 activity by VUF16840. […] The resulting proximity between ACKR3 and β-arrestin1 (A, E), GRK2 (B, F), or Rab5a (C, G) was determined by bioluminescence resonance energy transfer. Furthermore, an interaction between clathrin A and β-arrestin2 was measured by NLuc complementation, as was determined by quantifying the relative light units (D, H). […]

HA-hACKR3 = target: T3, HA-hACKR3 (Homo sapiens, UniProt P25106); experiment: [3H]VUF15485 radioligand binding assay; details: 2 nM [3H]VUF15485, HEK293T membranes; for pIC50: read-out: IC50, displacement of [3H]VUF15485 binding from HA-hACKR3
T3 construct: expressed in transfected cells; host or cells: HEK293T (membranes, transient expression)
T3 sequence (P25106 whole entry): as above
Experimental: as §1, with “rpm. Cell homogenates were subsequently subjected to 2 freeze-thaw cycles using liquid nitrogen. Next, the cell homogenates were centrifuged at 40,000 g and pellets were resuspended in Tris-sucrose buffer (20 mM Tris, 250 mM sucrose, pH 7.4 at 4 °C).” for “rpm.”
Radioligand binding studies were performed as described earlier.[23] […] Filter-bound [^3H]VUF15485 was measured by adding 25 μL MicroScint-O per well to the dried GF/C-plate and radioactivity was quantified using the Wallac Microbeta counter (Perkin Elmer).
as §2, with “Graphs depict the pooled data of all experiments.” left out, “Graphs depict the pooled data of all experiments, for which values are normalized, per experiment, to the fold difference compared with basal signal.” left out
The ACKR3 ligand VUF16840 was evaluated for its binding to hACKR3 in different competition binding assay formats (Fig. 1). […]

T1 sequence (P25106 whole entry): as above

pIC50 (NLuc-hACKR3)	EC50 (ACKR3) [nM]	pIC50 (HA-hACKR3)	IC50 (ACKR3; versus 100 nM VUF15485, read-out: Rab5a BRET, Inhibition by VUF16840 (pIC50) (converted)) [nM]	IC50 (HA-hACKR3; mean ± SD, read-out: pIC50, displacement of [3H]VUF15485 binding from HA-hACKR3 (converted)) [nM]	SMILES
7.55	7.94	7.70	–	–	COc1cc(C(=O)N(CCC2CCCN2C)CC(C)=Cc2ccccc2F)cc(OC)c1OC (centres unmarked) [VUF15485, reference compound]
8.15	1.58	9.15	5.01	0.794	COc1ccccc1CCNC(=O)C1CN(C2CCCCC2)CCC1NC(=O)c1cc(-c2ccc(F)cc2F)on1 (centres unmarked) [VUF16840]

Reference: PMC12799421, “Inhibition of constitutive activity of the atypical chemokine receptor 3 by the small-molecule inverse agonist VUF16840” (Molecular Pharmacology, 2025)
